From patent publication US9409952B2, “Peptide-compound cyclization method” (Chugai Seiyaku Kabushiki Kaisha, priority 2011, dated 2016)
Where two headings read alike, the source gives them in different places. Starred links: 1 amine or outer side, 2 acyl side, 3 side chain; linkers in the order of their positions; H or OH if unused. Positions of bridges follow the written chain, without caps; N, C: chain ends. Non-standard residues stand in square brackets, D forms with d. Residues, ends and D or L forms follow the SMILES beside them. ξ: configuration not given here. *: point of attachment. Tyr(3-F) = N[C@@H](Cc1ccc(O)c(F)c1)C(=O)O; NEtPhe = CCN[C@@H](Cc1ccccc1)C(=O)O; NMeF = CN[C@@H](Cc1ccccc1)C(=O)O; NMeI = CC[C@H](C)[C@H](NC)C(=O)O; NMeβAla = CN(CCC(=O)[*:2])[*:1]; NMeL = CN[C@@H](CC(C)C)C(=O)O; NMeV = CN[C@H](C(=O)O)C(C)C; NMeA = CN[C@@H](C)C(=O)O; Piperidide = C1CCN(*)CC1; dNMeA = CN[C@H](C)C(=O)O; Aze = O=C(O)[C@@H]1CCN1; ξL = CC(C)CC(N)C(=O)O; Sar = CNCC(=O)O; tBu = CC(C)(C)*

Assay: Metabolic stability in human hepatic microsome
Type: in vitro ADME
Conditions: for microsomal CLint at 1 uM: microsomes
[1] = pH 7.4, human hepatic microsome, NADPH(+), read-out: CL NADPH(+)

In the case of `C=C1CCC(=O)N(C)[C@@H](Cc2ccccc2)C(=O)N(C)[C@@H](CC(C)C)C(=O)N[C@@H]([C@@H](C)O)C(=O)N(C)[C@@H](C)C(=O)NCC(=O)N(C)[C@@H](CC(C)C)C(=O)N(C)[C@@H](CC(C)C)C(=O)N(C)[C@@H](CC(C)C)C(=O)N[C@H](C(=O)N2CCCCC2)Cc2ccc1cc2` [DP-845], the microsomal CLint at 1 uM [1] is reported as 248 µL/min/mg.

Compound `CC[C@H](C)[C@@H]1NC(=O)[C@H](C)NC(=O)C[C@@H](C(=O)N2CCCCC2)NC(=O)[C@H](CC(C)C)N(C)C(=O)[C@H](CC(C)C)N(C)C(=O)[C@H](C(C)C)NC(=O)[C@H](C)NC(=O)[C@H](Cc2ccccc2)N(C)C(=O)[C@H](Cc2ccccc2)N(C)C(=O)[C@H]([C@@H](C)O)NC(=O)[C@H](CC(C)C)N(C)C(=O)[C@@H]2CCCN2C1=O` [DP-10] (AIP[NMeL]T[NMeF][NMeF]AV[NMeL][NMeL]D-Piperidide; lactam N-12) has a microsomal CLint at 1 uM (human, pH 7.4, CL NADPH(+)) of 14 µL/min/mg.

Work on `CC[C@H](C)[C@H](NC(=O)[C@H](CC(C)C)N(C)C(=O)[C@@H]1CC(=O)N[C@@H](C)C(=O)N[C@@H](Cc2ccccc2)C(=O)N2CCC[C@H]2C(=O)N[C@@H](CC(C)C)C(=O)N[C@@H]([C@@H](C)O)C(=O)N[C@@H](CC(C)C)C(=O)N[C@@H](Cc2ccccc2)C(=O)N(C)[C@@H](C(C)C)C(=O)N[C@@H](C)C(=O)N1)C(=O)N1CCCCC1` [DP-43] (AFPLTLF[NMeV]AD[NMeL]I-Piperidide; lactam N-10) yielded a microsomal CLint at 1 uM (human, pH 7.4, CL NADPH(+)) of 44 µL/min/mg.

In the case of `C=C1CCC(=O)N(C)[C@@H](Cc2ccccc2)C(=O)N(C)[C@@H](CC(C)C)C(=O)N[C@@H]([C@@H](C)CC)C(=O)N(C)[C@@H](C)C(=O)N(C)[C@@H](Cc2ccccc2)C(=O)N[C@@H]([C@@H](C)O)C(=O)N(C)[C@@H](C)C(=O)N(C)[C@@H](CC(C)C)C(=O)N[C@H](C(=O)N2CCCCC2)Cc2ccc1cc2` [DP-833], the microsomal CLint at 1 uM [1] is reported as 427 µL/min/mg.

For `CC(C)C[C@@H]1NC(=O)[C@H](CC(C)C)N(C)C(=O)[C@H](CC(C)C)N(C)C(=O)CNC(=O)[C@H](Cc2ccccc2)N(C)C(=O)[C@H]([C@@H](C)O)NC(=O)[C@H](CC(C)C)N(C)C(=O)[C@H](Cc2ccc(O)c(F)c2)NC(=O)[C@H](C)NC(=O)C[C@@H](C(=O)N(C)[C@@H](Cc2ccccc2)C(=O)N[C@@H](C)C(=O)N2CCCCC2)NC1=O` [DP-605] (A[Tyr(3-F)][NMeL]T[NMeF]G[NMeL][NMeL]LD[NMeF]A-Piperidide; lactam N-10), the microsomal CLint at 1 uM [1] was 30 µL/min/mg.

For `CCN1C(=O)[C@H](C)NC(=O)[C@H](Cc2ccccc2)N(C)C(=O)[C@H](CC(C)C)N(C)C(=O)[C@H](CC(C)C)NC(=O)[C@@H](C)N(C)C(=O)C[C@@H](C(=O)N2CCCCC2)NC(=O)[C@H](CC(C)C)N(C)C(=O)CN(C)C(=O)[C@H]([C@@H](C)O)NC(=O)[C@H](CC(C)C)N(C)C(=O)[C@@H]1Cc1ccccc1` [DP-637] ([dNMeA]L[NMeL][NMeF]A[NEtPhe][NMeL]T[Sar][NMeL]D-Piperidide; lactam N-11), the microsomal CLint at 1 uM [1] was 56 µL/min/mg.

For `CC[C@H](C)[C@H](NC(=O)[C@H](Cc1ccccc1)N(C)C(=O)[C@H](Cc1ccccc1)N(C)C(=O)[C@@H]1CC(=O)N(C)CCC(=O)N(C)[C@@H](CC(C)C)C(=O)N(C)[C@@H](Cc2ccccc2)C(=O)N[C@@H](CC(C)C)C(=O)N(C)[C@@H](CC(C)C)C(=O)N(C)[C@@H](CC(C)C)C(=O)N[C@@H]([C@@H](C)O)C(=O)N(C)[C@@H](C)C(=O)N1)C(=O)N1CCCCC1` [DP-960] ([NMeβAla][NMeL][NMeF]L[NMeL][NMeL]T[NMeA]D[NMeF][NMeF]I-Piperidide; lactam N-9), the microsomal CLint at 1 uM [1] was 36 µL/min/mg.

In the case of `CC[C@H](C)[C@H]1C(=O)N(C)[C@@H](CC(C)C)C(=O)N[C@H](C(=O)N2CCCCC2)CC(=O)N(C)CC(=O)N[C@@H](CC(C)C)C(=O)N[C@@H]([C@@H](C)O)C(=O)N(C)CC(=O)N(C)[C@@H](Cc2ccccc2)C(=O)N[C@@H](C)C(=O)N(CC)[C@@H](Cc2ccccc2)C(=O)N[C@@H](CC(C)C)C(=O)N1C` [DP-638] ([Sar]LT[Sar][NMeF]A[NEtPhe]L[NMeI][NMeL]D-Piperidide; lactam N-11), the microsomal CLint at 1 uM [1] is reported as 47 µL/min/mg.

`CC[C@H](C)[C@H]1C(=O)NCC(=O)N(C)[C@@H](CC(C)C)C(=O)N[C@@H]([C@@H](C)O)C(=O)N2CCC[C@H]2C(=O)N[C@@H](Cc2ccccc2)C(=O)N[C@H](C(=O)N2CCCCC2)CC(=O)N(C)[C@@H](C)C(=O)N[C@@H](Cc2ccccc2)C(=O)N2CC[C@H]2C(=O)N[C@@H](CC(C)C)C(=O)N1C` [DP-552] ([NMeA]F[Aze]L[NMeI]G[NMeL]TPFD-Piperidide; lactam N-11) gave a microsomal CLint at 1 uM [1] of 157 µL/min/mg.

`CC[C@H](C)[C@@H]1NC(=O)[C@H](C)NC(=O)C[C@@H](C(=O)N2CCCCC2)NC(=O)[C@@H]2CCCN2C(=O)C(CC(C)C)NC(=O)[C@H](Cc2ccccc2)N(C)C(=O)[C@H]([C@@H](C)O)NC(=O)[C@H](Cc2ccccc2)N(C)C(=O)[C@H](C)N(C)C1=O` (stereo partly shown) [DP-34] (AI[NMeA][NMeF]T[NMeF][ξL]PD-Piperidide; lactam N-9) gave a microsomal CLint at 1 uM (human, pH 7.4, CL NADPH(+)) of 102 µL/min/mg.

`CC[C@H](C)[C@@H]1NC(=O)[C@H](Cc2ccccc2)N(C)C(=O)[C@@H](C)NC(=O)C[C@@H](C(=O)N2CCCCC2)NC(=O)[C@H](C(C)C)NC(=O)CN(C)C(=O)[C@H]([C@@H](C)O)NC1=O` [DP-674] ([dA][NMeF]IT[Sar]VD-Piperidide; lactam N-7) gave a microsomal CLint at 1 uM [1] of 10 µL/min/mg.

Work on `CC[C@H](C)[C@@H]1NC(=O)[C@H](C(C)C)N(C)C(=O)[C@H](Cc2ccccc2)N(C)C(=O)[C@H](Cc2ccccc2)NC(=O)[C@H](CC(C)C)N(C)C(=O)[C@H](C)N(C)C(=O)[C@H]([C@@H](C)O)NC(=O)[C@H](C)N(C)C(=O)C[C@@H](C(=O)N2CCCCC2)NC(=O)[C@H](CC(C)C)N(C)C1=O` [DP-333] ([NMeA]T[NMeA][NMeL]F[NMeF][NMeV]I[NMeL]D-Piperidide; lactam N-10) yielded a microsomal CLint at 1 uM [1] of 157 µL/min/mg.

`CC[C@H](C)[C@H]1C(=O)NCC(=O)N(C)[C@@H](CC(C)C)C(=O)N[C@@H]([C@@H](C)O)C(=O)N2CC[C@H]2C(=O)N[C@@H](Cc2ccccc2)C(=O)N[C@H](C(=O)N2CCCCC2)CC(=O)N(C)[C@@H](C)C(=O)N[C@@H](Cc2ccccc2)C(=O)N(C)[C@@H](CC(C)C)C(=O)N[C@@H](CC(C)C)C(=O)N1C` [DP-558] ([NMeA]F[NMeL]L[NMeI]G[NMeL]T[Aze]FD-Piperidide; lactam N-11) showed a microsomal CLint at 1 uM [1] of 133 µL/min/mg.

For `CC[C@H](C)[C@H]1C(=O)N[C@H](C(=O)N2CCCCC2)CC(=O)N[C@@H](C)C(=O)N(C)[C@@H](Cc2ccccc2)C(=O)N(C)[C@@H](CC(C)C)C(=O)N[C@@H]([C@@H](C)O)C(=O)N(C)CC(=O)N(C)[C@@H](CC(C)C)C(=O)N[C@@H](COC(C)(C)C)C(=O)N1C` [Compound P-123, Ala-MePhe-MeLeu-Thr-MeGly-MeLeu-Ser(tBu)-MeIle-Asp-piperidine] (A[NMeF][NMeL]T[Sar][NMeL]S(tBu)[NMeI]D-Piperidide; lactam N-9), the “Hepatic microsome CLhint (Human) In the absence of NADPH” value was 0 ul/min/mg Protein and the microsomal CLint at 1 uM (human, pH 7.4, Hepatic microsome CLhint (Human) In the presence of NADPH) was 106 µL/min/mg.

For `CC[C@H](C)[C@H]1C(=O)N(C)[C@@H](C)C(=O)N[C@H](C(=O)N2CCCCC2)CC(=O)N[C@@H](C)C(=O)N[C@@H]([C@@H](C)O)C(=O)N(C)[C@@H](Cc2ccccc2)C(=O)N(C)[C@@H](CC(C)C)C(=O)N[C@@H](C(C)C)C(=O)N2CCC[C@H]2C(=O)N(C)[C@@H](Cc2ccccc2)C(=O)N[C@@H](CC(C)C)C(=O)N(C)CC(=O)N1C` [DP-11] (AT[NMeF][NMeL]VP[NMeF]L[Sar][NMeI][NMeA]D-Piperidide; lactam N-12), the microsomal CLint at 1 uM (human, pH 7.4, CL NADPH(+)) was 67 µL/min/mg.
